Laboratory results from ChEMBL document CHEMBL1201862, “PubChem BioAssay data set” (2004).
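48-hour exposure; five concentrations; linearly interpolated endpoints. The concentration for 50% growth inhibition is given as GI50.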 Calls of active or inactive are those of the source. No stated cut-off is given here; in the data, active = GI50 up to about 1.1 µM and inactive = higher.

Experiments:
Test in all cases: growth of human tumour cells (NCI), 48 h
Malme-3M = system: Malme-3M
EKVX = system: EKVX
SK-MEL-5 = system: SK-MEL-5
U-251 = system: U-251
TK-10 = system: TK-10
A549 = system: A549
UACC-257 = system: UACC-257
OVCAR-8 = system: OVCAR-8
SK-MEL-2 = system: SK-MEL-2
MOLT-4 = system: MOLT-4
RPMI-8226 = system: RPMI-8226
NCI-H226 = system: NCI-H226
786-0 = system: 786-0
OVCAR-4 = system: OVCAR-4
SR = system: SR
HCT-116 = system: HCT-116
M14 = system: M14
SNB-19 = system: SNB-19

Measured: GI50

Cc1ccc(/C=C/C(=O)c2sc(-c3cccnc3)nc2C)cc1
inactive: Malme-3M > 100 µM | EKVX > 100 µM | SK-MEL-5 > 100 µM | U-251 > 100 µM | TK-10 > 100 µM | A549 > 100 µM | UACC-257 > 100 µM | OVCAR-8 > 100 µM | SK-MEL-2 > 100 µM | MOLT-4 > 100 µM | RPMI-8226 > 100 µM | NCI-H226 > 100 µM | 786-0 > 100 µM

COc1ccc(/C=N/NC(=O)NCCNCCO)cc1
inactive: Malme-3M > 100 µM | SK-MEL-5 > 100 µM | U-251 > 100 µM | TK-10 > 100 µM | A549 > 100 µM | UACC-257 > 100 µM | OVCAR-4 > 100 µM | OVCAR-8 > 100 µM | SK-MEL-2 > 100 µM | MOLT-4 > 100 µM | SR > 100 µM | RPMI-8226 > 100 µM | HCT-116 > 100 µM | NCI-H226 > 100 µM | 786-0 > 100 µM | M14 > 100 µM

CN(C)c1ccc(/C=C2\C=Cc3ccccc32)cc1
inactive: SNB-19 59.2 µM | Malme-3M > 100 µM | SK-MEL-5 36.3 µM | U-251 55 µM | TK-10 > 100 µM | A549 76.6 µM | OVCAR-4 50.5 µM | OVCAR-8 94.8 µM | SK-MEL-2 90.6 µM | MOLT-4 32.1 µM | SR 32.4 µM | RPMI-8226 35.3 µM | HCT-116 33.1 µM | 786-0 61 µM | M14 29.2 µM

Cc1nc(O)nc(CC(O)(c2ccccc2)c2ccccc2)c1-c1ccccc1
inactive: SNB-19 > 100 µM | Malme-3M > 100 µM | EKVX > 100 µM | SK-MEL-5 > 100 µM | U-251 > 100 µM | TK-10 > 100 µM | A549 > 100 µM | UACC-257 > 100 µM | OVCAR-4 > 100 µM | OVCAR-8 > 100 µM | SK-MEL-2 > 100 µM | MOLT-4 > 100 µM | HCT-116 > 100 µM | NCI-H226 > 100 µM | 786-0 > 100 µM | M14 > 100 µM

CCOC(=O)C12CCSC1C1(C#N)C(C#N)=CC2(N=P(c2ccccc2)(c2ccccc2)c2ccccc2)n2c(=O)n(-c3ccccc3)c(=O)n21 (centres undefined)
inactive: SNB-19 39.3 µM | Malme-3M 44.6 µM | EKVX 82.2 µM | SK-MEL-5 25.2 µM | U-251 42.4 µM | TK-10 > 100 µM | A549 34.9 µM | UACC-257 33.6 µM | OVCAR-4 21.9 µM | OVCAR-8 47.1 µM | SK-MEL-2 48.6 µM | MOLT-4 30.3 µM | RPMI-8226 26.1 µM | HCT-116 36.9 µM | NCI-H226 41.3 µM | 786-0 47.8 µM | M14 42.2 µM

Cn1c2cc([N+](=O)[O-])ccc2c(=O)c2c(O)cc3c(c21)C=CC(C)(C)O3
inactive: SNB-19 31.6 µM | Malme-3M > 100 µM | EKVX 22 µM | SK-MEL-5 > 100 µM | U-251 > 100 µM | TK-10 37.1 µM | A549 57.4 µM | UACC-257 > 100 µM | OVCAR-4 > 100 µM | OVCAR-8 59.3 µM | SK-MEL-2 40.7 µM | MOLT-4 > 100 µM | RPMI-8226 > 100 µM | 786-0 44.3 µM | M14 > 100 µM

Cc1nc(Nc2ccccc2)sc1C(=O)CC(=O)C(=O)NC12CC3CC(CC(C3)C1)C2
inactive: SNB-19 > 100 µM | Malme-3M > 100 µM | EKVX 7.21 µM | SK-MEL-5 74.5 µM | U-251 > 100 µM | TK-10 > 100 µM | A549 > 100 µM | UACC-257 > 100 µM | OVCAR-4 > 100 µM | OVCAR-8 > 100 µM | SK-MEL-2 > 100 µM | MOLT-4 > 100 µM | HCT-116 > 100 µM | NCI-H226 > 100 µM | 786-0 > 100 µM | M14 > 100 µM

NCCNc1cccc2ccccc12
inactive: SNB-19 > 100 µM | Malme-3M > 100 µM | EKVX > 100 µM | U-251 > 100 µM | TK-10 > 100 µM | A549 > 100 µM | UACC-257 > 100 µM | OVCAR-4 > 100 µM | OVCAR-8 > 100 µM | SK-MEL-2 > 100 µM | SR > 100 µM | RPMI-8226 > 100 µM | HCT-116 > 100 µM | NCI-H226 > 100 µM | 786-0 > 100 µM | M14 > 100 µM
